Assay results published in publication PMC6556873, “Rapid Covalent-Probe Discovery by Electrophile-Fragment Screening” (Journal of the American Chemical Society, 2019).
Like-named read-outs stand apart in the source and are kept apart here.

Columns and labels:
BSA = target: T1, BSA (Bos taurus, UniProt P02769); parameters: Intact protein LC/MS covalent labelling, fragments in pools of five, 200 uM each, 4 °C; conditions: 24 h, 4 °C, pool of five; 200 µM; covalent
T1 construct: gene ALB

NUDT7 = target: T2, NUDT7 (Homo sapiens, UniProt P0C024); parameters: Intact protein LC/MS covalent labelling, fragments in pools of five, 200 uM each, 4 °C; conditions: 24 h, 4 °C, pool of five; 200 µM; covalent
T2 construct: residues 14-235, E. coli, pNIC28-Bsa4, N-terminal His6 tag removed by TEV, construct 26672 Da

OTUB2 (OTUB2A) = target: T3, OTUB2 (OTUB2A) (Homo sapiens, UniProt Q96DC9); parameters: Intact protein LC/MS covalent labelling, fragments in pools of five, 200 uM each, 4 °C; conditions: 24 h, 4 °C, pool of five; 200 µM; covalent
T3 construct: full length residues 1-234, E. coli BL21(DE3)-R3, His tag removed by TEV, construct 27312 Da
T3 sequence (Q96DC9 1-234): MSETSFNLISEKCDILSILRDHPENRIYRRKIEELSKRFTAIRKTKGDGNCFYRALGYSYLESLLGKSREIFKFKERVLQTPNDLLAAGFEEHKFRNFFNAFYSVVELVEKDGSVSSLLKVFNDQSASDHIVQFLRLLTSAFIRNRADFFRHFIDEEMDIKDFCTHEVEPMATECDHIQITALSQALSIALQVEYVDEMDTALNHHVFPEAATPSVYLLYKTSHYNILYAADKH

PCAF = target: T4, PCAF (Homo sapiens, UniProt Q92831); parameters: Intact protein LC/MS covalent labelling, fragments in pools of five, 200 uM each, 4 °C; conditions: 24 h, 4 °C, pool of five; 200 µM; covalent
T4 construct: gene KAT2B

in vitro [1] = experiment: in vitro; parameters: species or system CCD841, HEK293; conditions: human, hb2 cells, read-out: HB-2 Cells Viability (%)
in vitro [2] = experiment: in vitro; parameters: species or system HB2, HEK293; conditions: human, ccd841 cells
in vitro [3] = experiment: in vitro; parameters: species or system HB2, CCD841; conditions: human, hek293 cells

T2 sequence (P0C024 14-235): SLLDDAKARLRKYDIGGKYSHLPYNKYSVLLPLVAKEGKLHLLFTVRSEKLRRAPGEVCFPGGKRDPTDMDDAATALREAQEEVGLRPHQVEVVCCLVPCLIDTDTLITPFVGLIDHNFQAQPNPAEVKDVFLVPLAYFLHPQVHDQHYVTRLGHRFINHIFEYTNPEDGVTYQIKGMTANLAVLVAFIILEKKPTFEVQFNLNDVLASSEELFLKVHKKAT
T4 sequence (Q92831 whole entry, the tested form may be a part): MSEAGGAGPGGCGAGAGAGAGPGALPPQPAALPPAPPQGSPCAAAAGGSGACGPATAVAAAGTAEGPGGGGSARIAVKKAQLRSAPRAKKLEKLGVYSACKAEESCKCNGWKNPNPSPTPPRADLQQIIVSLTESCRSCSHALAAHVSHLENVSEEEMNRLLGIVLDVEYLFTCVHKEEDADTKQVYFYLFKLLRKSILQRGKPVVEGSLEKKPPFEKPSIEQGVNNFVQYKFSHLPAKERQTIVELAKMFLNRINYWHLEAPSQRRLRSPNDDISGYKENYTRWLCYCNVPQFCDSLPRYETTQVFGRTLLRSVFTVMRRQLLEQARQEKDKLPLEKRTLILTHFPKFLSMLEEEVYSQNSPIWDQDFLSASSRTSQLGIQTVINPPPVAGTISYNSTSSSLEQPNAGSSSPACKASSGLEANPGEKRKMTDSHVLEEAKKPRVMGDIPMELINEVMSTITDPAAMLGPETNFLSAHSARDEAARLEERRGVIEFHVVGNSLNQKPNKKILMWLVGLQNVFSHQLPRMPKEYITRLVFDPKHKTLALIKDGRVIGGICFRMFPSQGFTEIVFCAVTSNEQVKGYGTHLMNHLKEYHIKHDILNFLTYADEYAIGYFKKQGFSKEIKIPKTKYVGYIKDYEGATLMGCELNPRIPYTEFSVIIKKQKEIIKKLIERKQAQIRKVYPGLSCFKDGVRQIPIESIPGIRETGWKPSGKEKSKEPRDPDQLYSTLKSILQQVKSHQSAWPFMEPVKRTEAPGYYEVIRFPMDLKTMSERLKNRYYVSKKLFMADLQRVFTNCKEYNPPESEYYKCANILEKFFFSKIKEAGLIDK
T1 sequence (P02769 whole entry, the tested form may be a part): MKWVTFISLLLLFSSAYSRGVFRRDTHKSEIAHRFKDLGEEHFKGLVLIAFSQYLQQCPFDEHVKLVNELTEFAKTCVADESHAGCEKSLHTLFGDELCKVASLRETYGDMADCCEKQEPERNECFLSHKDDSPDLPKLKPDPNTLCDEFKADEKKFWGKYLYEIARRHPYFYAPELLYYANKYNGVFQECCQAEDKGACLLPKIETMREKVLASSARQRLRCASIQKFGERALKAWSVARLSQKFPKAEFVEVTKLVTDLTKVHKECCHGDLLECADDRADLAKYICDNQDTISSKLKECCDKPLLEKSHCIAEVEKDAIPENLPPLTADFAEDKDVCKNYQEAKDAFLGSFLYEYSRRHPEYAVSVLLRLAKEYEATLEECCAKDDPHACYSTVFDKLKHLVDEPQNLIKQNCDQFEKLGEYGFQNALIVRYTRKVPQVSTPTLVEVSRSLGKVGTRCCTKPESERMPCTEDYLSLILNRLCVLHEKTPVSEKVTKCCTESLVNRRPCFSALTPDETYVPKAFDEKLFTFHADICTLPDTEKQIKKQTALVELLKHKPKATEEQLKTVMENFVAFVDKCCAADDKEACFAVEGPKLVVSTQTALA

Row | Structure (SMILES) | BSA (BSA) | NUDT7 (NUDT7) | OTUB2 (OTUB2 (OTUB2A)) | PCAF (PCAF) | viability at 48 h, 10 µM (in vitro [1]) [%] | viability at 48 h, 10 µM (in vitro [2]) [%] | viability at 48 h, 10 µM (in vitro [3]) [%]
1 | CC(=O)c1sc(NC(=O)CCl)nc1C [PCM-0102838] | 0 | 0.12 | 0 | 0 | 96 | 92.1 | 87.2
2 | C=CC(=O)Nc1ccccc1OC [PCM-0102493] | 0 | 0 | 0 | 0 | 98.2 | 105 | 74.7
3 | O=C(CCl)Nc1ccc(F)c([N+](=O)[O-])c1 [PCM-0102238] | 0 | 0.23 | 0.32 | 0 | 1 | 3.7 | 0.8
4 | CC1CCc2c(sc(NC(=O)CCl)c2C#N)C1 (stereo not drawn) [PCM-0102420] | 0 | 0.47 | 0 | 0 | 50.9 | 81.6 | 43.4
5 | C=CC(=O)NCC1CCCS1 (stereo not drawn) [PCM-0102719] | 0 | 0 | 0 | 0 | 102 | 105 | 86.1
6 | O=C(CCl)NNC(=O)C1CCC1 [PCM-0103061] | 0 | 0.28 | 0.14 | 0 | 8.2 | 30.9 | 2.3
7 | CC(C)(C)c1cc(NC(=O)CCl)n(-c2ccccc2)n1 [PCM-0102536] | 0 | 0 | 0.14 | 0 | 33.5 | 65.2 | 10.6
8 | C=CC(=O)N1CCCC(Cc2nccn2C)C1 (stereo not drawn) [PCM-0102433] | 0 | 0.2 | 0.26 | 0.44 | 94.7 | 97.8 | 92.9
9 | C=CC(=O)N1CCCN(C(=O)Oc2ccccc2)CC1 [PCM-0102451] | 0 | 0 | 0 | 0 | 96.2 | 105 | 93.9
10 | O=C(CCl)N1CCN(S(=O)(=O)c2ccc(F)c(F)c2)CC1 [PCM-0102361] | 0 | 0 | 0 | 0 | 2.5 | 48.1 | 5.4
11 | O=C(CCl)Nc1ccc(Cl)c(Cl)c1 [PCM-0102112] | 0 | 0.18 | 0.3 | 0 | 2 | 26 | 1.4
12 | O=C(CCl)N1CCCC1c1cccs1 (stereo not drawn) [PCM-0102393] | 0 | 0.36 | 0 | 0 | 7.5 | 39 | 2.5
13 | O=C(CCl)N1CCC(c2ccccc2)=N1 [PCM-0102150] | 0 | 0 | 0 | 0 | 31.2 | 71.8 | 32.7
14 | O=C(CCl)NC(=O)NC1CCCC1 [PCM-0103001] | 0 | 0 | 0 | 0 | 66.4 | 80.2 | 66.7
15 | O=C(CCl)NNC(=O)c1ccccc1F [PCM-0102510] | 0 | 0 | 0.52 | 0 | 98 | 72.7 | 93.1
16 | C=CC(=O)N1CCN(C(C)C)c2ccccc2C1 [PCM-0102888] | 0 | 0 | 0 | 0 | 108 | 93.1 | 101
17 | O=C(CCl)NNC(=O)c1ccc(Cl)cc1 [PCM-0102953] | 0 | 0 | 0.18 | 0 | 83 | 82.1 | 82.8
18 | O=C(CCl)NC(=O)NCc1ccccc1 [PCM-0102122] | 0 | 0 | 0 | 0 | 54.8 | 76.9 | 65.5
19 | C=CC(=O)Nc1ccccc1[N+](=O)[O-] [PCM-0102742] | 0 | 0.41 | 0 | 0 | 41.2 | 66.4 | 65.8
20 | O=C(CCl)NCC1COc2ccccc2O1 (stereo not drawn) [PCM-0102881] | 0 | 0 | 0.39 | 0 | 81 | 76.2 | 56.3
21 | C=CC(=O)N1CCN(C(=O)OCC(C)C)CC1 [PCM-0102449] | 0 | 0 | 0 | 0 | 103 | 80.1 | 76.6
22 | Cl.O=C(CCl)N1CCN(C2CCS(=O)(=O)C2)CC1 (stereo not drawn) [PCM-0102405] | 0 | 0 | 0 | 0 | 107 | 87.8 | 90.2
23 | CC(C)N(C(=O)CCl)C1CCCC1 [PCM-0102948] | 0 | 0.13 | 0 | 0 | 88.4 | 102 | 84.3
24 | O=C(CCl)Nc1cccc2c1N=S=N2 [PCM-0102329] | 0 | 0 | 0 | 0 | 38.2 | 50.1 | 19.9
